Reference: the Bradley open melting point set (2014)
Where “and” joins values, the source holds several entries; their conditions need not be identical. Identical values can stand only once. Counter-ions that a name gives are not always drawn.

Compound	melting point
c1ccc(Nc2ccccc2)cc1 [diphenylamine]	52 °C and 53.5 °C and 54 °C
c1ccc(Cc2ccccc2)cc1 [diphenylmethane]	25 °C
CCN(CC)C(=S)SSC(=S)N(CC)CC [disulfiram]	70 °C
CCCCCCCCCCCC [dodecane]	-10 °C
CCCCCCCCCCCC(=O)O [dodecanoic acid]	44 °C
Cn1c(=O)c2c(ncn2CC2OCCO2)n(C)c1=O [doxofylline]	144 °C
CCCCCCCCCCCCS[C@H](C(=O)Nc1cc(C)c(O)c(C)c1C)c1ccccc1 [eflucimibe]	-144 °C
CCCCCCCC/C=C/CCCCCCCC(=O)O [elaidic acid]	43 °C
O=C1[C@@H]2[C@H](C(=O)N1O)[C@@H]1C=C[C@H]2C1 [endo-n-hydroxy-5-norbornene-2,3-dicarboximide]	168 °C
CN[C@@H](C)[C@H](O)c1ccccc1 [ephedrine]	34 °C
O=C(O)CSCC(=O)NC1CCSC1=O (stereo unspecified) [erdosteine]	156 °C
CCCCCCCC/C=CCCCCCCCCCCCC(=O)O [erucic acid]	31 °C
CC[C@H]1OC(=O)[C@H](C)[C@@H](O[C@H]2C[C@@](C)(OC)[C@@H](O)[C@H](C)O2)[C@H](C)[C@@H](O[C@@H]2O[C@H](C)C[C@H](N(C)C)[C@H]2O)[C@](C)(O)C[C@@H](C)C(=O)[C@H](C)[C@@H](O)[C@]1(C)O [erythromycin]	191 °C
C[C@]12CC[C@@H]3c4ccc(O)cc4CC[C@H]3[C@@H]1CC[C@@H]2O [estradiol] [listing 1 of 2 here]	176 °C and 178 °C
C[C@]12CC[C@@H]3c4ccc(O)cc4CC[C@H]3[C@@H]1CC[C@@H]2O [estradiol] [listing 2 of 2 here]	176 °C
CCS [ethanethiol]	-148 °C
CCOC(=O)c1csnn1 [ethyl 1,2,3-thiadiazole-4-carboxylate]	84 °C
CCOC(=O)c1cnn(-c2ccccc2)c1 [ethyl 1-phenyl-1h-pyrazole-4-carboxylate]	98 °C
CCOC(=O)c1c(O)cc(C)nc1O [ethyl 2,4-dihydroxy-6-methylnicotinate]	212 °C
CCOC(=O)c1csc(C)n1 [ethyl 2-methylthiazole-4-carboxylate]	55 °C
CCOC(=O)c1c[nH]nc1C(F)(F)F [ethyl 3-trifluoromethyl-1h-pyrazole-4-carboxylate]	144 °C
CCOC(=O)c1ccc(CBr)cc1 [ethyl 4-(bromomethyl)benzoate]	31 °C
CCOC(=O)c1ccc(O)cc1 [ethyl 4-hydroxybenzoate] [listing 1 of 2 here]	117 °C
CCOC(=O)c1ccc(O)cc1 [ethyl 4-hydroxybenzoate] [listing 2 of 2 here]	117 °C
CCOC(=O)c1cnn(C)c1N [ethyl 5-amino-1-methyl-1h-pyrazole-4-carboxylate]	100 °C
CCOC(=O)c1ccc([N+](=O)[O-])o1 [ethyl 5-nitro-2-furoate]	101 °C

Compound	melting point
CCOC=C(C#N)C(=O)OCC [ethyl (ethoxymethylene)cyanoacetate]	50 °C
CCOC(=O)c1ccccc1N [ethyl anthranilate]	15 °C
CCOC(N)=O [ethyl carbamate]	49 °C
CCOC(=O)CCl [ethyl chloroacetate]	-26 °C
CCOC(=O)/C=C/c1ccccc1 [ethyl cinnamate]	7 °C
CCOC=O [ethyl formate]	-81 °C
CCCCCCC(=O)OCC [ethyl heptanoate]	-66 °C
CCN=C=S [ethyl isothiocyanate]	-6 °C
CCSC [ethyl methyl sulfide]	-106 °C
CCOC(=O)c1cccnc1 [ethyl nicotinate]	9 °C
CCCCCCCCC(=O)OCC [ethyl nonanoate]	-44 °C
CCCCCCCC(=O)OCC [ethyl octanoate]	-47 °C
CCOC(=O)C(=O)Nc1ccccc1 [ethyl oxanilate]	67 °C
CCOC(=O)c1ccc(O)cc1 [ethyl p-hydroxybenzoate]	116 °C
CCOC(=O)Cc1ccccc1 [ethyl phenylacetate]	-29 °C
CCOC(=O)C(C)=O [ethyl pyruvate]	-58 °C
CCOC(=O)c1ccc(N)cc1 [ethyl-4-aminobenzoate (benzocaine)]	89 °C
CCOC(=O)c1ccc(N)cc1 [ethyl_4-aminobenzoate]	89 °C
CCC#N [ethyl_cyanide]	-93 °C
CCOC(=O)CC(C)C [ethyl_isovalerate]	-99 °C
CCOC(=O)c1ccc(C(C)=O)cc1 [ethyl_p-acetylbenzoate]	55 °C
CCOC(=O)c1ccc(C#N)cc1 [ethyl_p-cyanobenzoate]	54 °C
NCCN [ethylenediamine]	10 °C
CCOC(=O)c1ccc(O)cc1 [ethylparaben]	116 °C
COP(=S)(OC)Oc1cc(Cl)c(Cl)cc1Cl [fenchlorphos]	35 °C
CC1(C)C(=O)[C@@]2(C)CC[C@@H]1C2 [fenchone]	6 °C

Compound	melting point
c1ccc(C(CCN2CCCCC2)c2ccccc2)cc1 [fenpiprane]	41 °C
O=C(O)c1ccccc1Nc1cccc(C(F)(F)F)c1 [flufenamic acid]	134 °C
CC1CCc2cc(F)cc3c(=O)c(C(=O)O)cn1c23 (stereo unspecified) [flumequine]	253 °C
c1ccc2c(c1)Cc1ccccc1-2 [fluorene]	116 °C
O=C1OC2(c3ccc(O)cc3Oc3cc(O)ccc32)c2ccccc21 [fluorescein]	320 °C
O=[N+]([O-])c1ccc(Oc2ccc(C(F)(F)F)cc2[N+](=O)[O-])cc1 [fluorodifen]	94 °C
CF [fluoromethane]	-142 °C
CCOC(=O)Nc1ccc(NCc2ccc(F)cc2)nc1N [flupirtine]	114 °C
CC(C(=O)O)c1ccc(-c2ccccc2)c(F)c1 (stereo unspecified) [flurbiprofen] [listing 1 of 2 here]	110 °C
CC(C(=O)O)c1ccc(-c2ccccc2)c(F)c1 (stereo unspecified) [flurbiprofen] [listing 2 of 2 here]	110 °C
O=CNc1ccccc1 [formanilide]	47 °C
O=C(O)c1ccccc1OP(=O)(O)O [fosfosal]	168 °C
O=C(O)/C=C/C(=O)O [fumaric acid]	300 °C
OB(O)c1ccoc1 [furan-3-boronic acid]	142 °C
OC[C@H]1O[C@H](O)[C@H](O)[C@@H](O)[C@@H]1O [glucose]	150 °C and 146 °C (3×) and 147 °C
CCC1(c2ccccc2)CCC(=O)NC1=O (stereo unspecified) [glutethimide]	87.5 °C
c1ccc(OCC2CO2)cc1 (stereo unspecified) [glycidyl phenyl ether]	4 °C
N=C(N)NCC1COc2ccccc2O1 (stereo unspecified) [guanoxan]	164 °C
CCC1(C2=CCCCCC2)C(=O)NC(=O)NC1=O [heptabarbital] [listing 1 of 2 here]	174 °C
CCC1(C2=CCCCCC2)C(=O)NC(=O)NC1=O [heptabarbital] [listing 2 of 2 here]	174 °C
ClC1/C=C\C2C3(Cl)C(\Cl)=C(\Cl)C(Cl)(C12)C3(Cl)Cl (stereo unspecified) [heptachlor]	95 °C and 95.5 °C
CCCCCCC=O [heptanal]	-43 °C
CC1(c2ccccc2)C(=O)NC(=O)NC1=O [heptobarbital]	228 °C
CC(=O)Oc1ccc2c3c1O[C@H]1[C@@H](OC(C)=O)C=C[C@H]4[C@@H](C2)N(C)CC[C@@]341 [heroin]	173 °C
